# Experimental data published in ChEMBL document CHEMBL3507680, “University of Dundee, Gates Library screen for HepG2 cell viability”.
# Experiment: Human HepG2 cell viability assay in 384 well format
# Type: toxicity, cell-based
# Design: dose 125 nL, time 70.5 hour; concentration not given beside the values
# Conditions: HepG2 cells, read-out: Inhibition
row,Compound,cytotoxicity at 70.5 h [%]
1,Cc1nc(N2CCCC2)nc2c1CCN(Cc1nccn1C)CC2,-10.2
2,CCc1ccc(C(=O)N2CCC(N(C)C(=O)OC(C)(C)C)C2)o1 (configuration not stated),0.0812
3,Cc1cnn(CCNCc2ccccc2C#N)c1,13.2
4,COc1cccc(CN2C[C@@H]3COC[C@]3(COCc3ccncc3)C2)c1,5.79
5,CNC(=O)c1cn[nH]c1C1CCN(Cc2cn(C)nc2C)C1 (configuration not stated),-12.4
6,CCN(CC)C(=O)CSc1nnc(CCNC(=O)OC(C)(C)C)o1,-11.3
7,Cc1nc(C)n(CC2CCCN2CC(=O)NCc2ccco2)n1 (configuration not stated),-2.21
8,NC(=O)N1CCc2cc(C(=O)O)c(-c3ccsc3)nc2CC1,-6.4
9,CC(C)C1CN(S(=O)(=O)C2CC2)CCCN1Cc1ccc(F)cc1 (configuration not stated),-3.51
10,CCN(Cc1nccn1C)C1CCN(c2ccccc2)C1=O (configuration not stated),-2.87
11,CC(=O)c1ccc(C(=O)NCC2Cc3ccccc3O2)s1 (configuration not stated),23.7
12,CN1CCCc2ccc(S(=O)(=O)NC(=O)C3CC=CC3)cc21,-3.77
13,Cc1csc2c(C3CCN(CCOc4ccccc4F)CC3)nc(C)n12,18.2
14,Cc1cc(CC(C)Nc2nc(C3CCCC3)nc3c2cnn3C)[nH]n1 (configuration not stated),-13
15,COc1ccc(CN2CCOC[C@H]2c2nc(-c3ccncc3)c[nH]2)cc1,-1.1
16,Cc1cnn(CC2CCCN2Cc2ncc(-c3ccc(F)cc3)o2)c1 (configuration not stated),24
17,CC(C)c1noc(Cn2ncc3ccccc3c2=O)n1,-7.17
18,COc1cccc(S(=O)(=O)NC2CNC(=O)C2)c1 (configuration not stated),1.68
19,Cc1nnc(N2CC[C@H](OCC3CC3)[C@@H](Cc3ccccc3)C2)s1,11.8
20,Cc1nn(C)c(C)c1C1CCCN1CC(=O)NC(C1CC1)C1CC1 (configuration not stated),-2.06
21,O=C(O)c1c(-c2ccoc2)ncc2c1CCN(C1CCOC1)C2 (configuration not stated),-2.3
22,CN1CCOC[C@H]1c1nc(-c2ccccc2)c[nH]1,-9.46
23,Cc1cc(C2CCCN2Cc2ccn(C)c(=O)c2)no1 (configuration not stated),-1.78

row,Compound,cytotoxicity at 70.5 h [%]
1,Cc1cc(C(=O)Nc2ccc(-c3nnc(N(C)C)o3)cc2)oc1C,14.7
2,O=C(Cn1c(=O)oc2ccccc21)NCC1(O)CCc2ccccc21 (configuration not stated),-6.07
3,CN1CCN(C(=O)c2cn(-c3ccc(C(F)(F)F)cn3)nn2)CC1,-6.96
4,CCC1CN(c2ncnc3nc[nH]c23)CCO1 (configuration not stated),11.7
5,CO[C@H]1CN(C(C)C)C[C@@H]1NC(=O)c1cc(-c2ccccc2O)n[nH]1,-1.03
6,COCC(=O)N1CCOC(c2ccc(N(C)C)cn2)C1 (configuration not stated),15.3
7,COCCN1C(=O)C[C@@H]2[C@H]1CCN2C(=O)COc1ccccc1,-20.9
8,c1ccc(Cc2nnc(CN3CCc4cncnc4C3)o2)cc1,1.25
9,Cc1ccc([C@@H]2CN(C(=O)c3cc(C)n[nH]3)C[C@H]2NC(=O)C2CC2)cc1,6.77
10,COCCN1CCC(NCc2ccc(Cl)cc2)C1 (configuration not stated),-11.1
11,O=C(COCC1CCCO1)N1CCCN(Cc2ccccc2F)CC1 (configuration not stated),-5.89
12,COc1ncccc1C(=O)N1CC(c2nc(-c3cccs3)no2)C1,-5.8
13,Cc1ccsc1CCNC(C)C(=O)NC1CCCC1 (configuration not stated),-10.7
14,Cc1cc(C(=O)N2CCC3(CC2)CC(c2cccnc2)C(=O)N3)no1 (configuration not stated),1.95
15,COc1ccccc1CNC(=O)COc1ccc2c(c1)OCC2O (configuration not stated),-5.21
16,CNC(=O)[C@H]1CC[C@@H]2[C@@H](CCN2C(=O)N(C)C)O1,-5.62
17,COc1cc(OC)cc(C2CCN(CC(=O)NCC(F)(F)F)C2)c1 (configuration not stated),-3.94
18,COCc1noc(-c2ccc(N3CCCCC3COC)nc2)n1 (configuration not stated),-11.8
19,CN(C)C1CCN(C(=O)c2ccc(Cn3ccccc3=O)o2)CC1,1.64
20,CS(=O)(=O)NC(=O)c1cnc2c(cnn2C2CCCC2)c1,-4.29
21,CC(C)[C@H]1CN(Cc2c[nH]nn2)C[C@@H]1NC(=O)C1CCOCC1,-0.972
22,COc1c(C2CCCN2c2ncnc3ccsc23)c(C)nn1C (configuration not stated),-3.57
23,COc1ccc(Cl)cc1NC(=O)CCNc1ccc(C#N)cn1,-6.33

row,Compound,cytotoxicity at 70.5 h [%]
1,NC(=O)c1ccc(-c2nc3c(c(=O)[nH]2)CCNC3)cc1,-2.1
2,O=C(NCC(CO)Cc1ccc(Cl)cc1)c1ccncc1F (configuration not stated),-1.03
3,COc1c(C2CC(=O)Nc3[nH]ncc32)cc2c(c1OC)OCO2 (configuration not stated),-13.5
4,Cc1nc(-c2cc(F)c3c(c2)CC(CN)O3)c[nH]1 (configuration not stated),3.79
5,Cc1cc(C(=O)N2CCCC(N3CCCCCC3)C2)nn1C(C)(C)C (configuration not stated),16.8
6,COCC1CN(C(=O)c2ccccn2)Cc2nccn2C1 (configuration not stated),-11.1
7,CCn1cc(CN2CCCN(C(=O)CCn3cc(C)cn3)CC2)cn1,-12.3
8,COC(C)(C)c1noc(C2(C#N)CCCCC2)n1,-0.329
9,CC(C)(C)n1nc(C2CC2)cc1C(=O)NC1CCN(CC(N)=O)CC1,-12.3
10,COc1ccccc1C1CNC(=O)c2nc(-c3cn(C)nc3C)[nH]c2C1 (configuration not stated),8.73
11,COc1cccc2c1OCCCN(c1nc(C)nc3c1CCNCC3)C2,-5.98
12,CC(CO)CSc1ncnc2[nH]ncc12 (configuration not stated),-0.794
13,Cn1nc2c(cc1=O)CN(Cc1nc(C3CC3)no1)CC2,-8.63
14,Cc1ccc(OC2(C(=O)NC(C)Cc3ccncc3)CCNCC2)cc1 (configuration not stated),-6.8
15,COCCCNC(=O)Cc1cc(-c2ccc3c(c2)OCO3)on1,13.4
16,O=C(c1cc(C2CC2)[nH]n1)N1CCCC(n2cncn2)C1 (configuration not stated),-0.297
17,CCc1ccc(CN2C[C@@H]3COC[C@H](NS(C)(=O)=O)[C@@H]3C2)o1,-18.1
18,COCc1cnc2n1CCN(C1CCCC1)C2C (configuration not stated),5.67
19,Cc1cc(C(=O)NCC2CCC3(CC2)OCCO3)[nH]n1,1.56
20,Cc1cnn(CC2CCCN2Cc2nccn2CC(F)(F)F)c1 (configuration not stated),0.0433
21,c1cnc(NC[C@@H]2CCC[C@@H]3CN(Cc4csnn4)C[C@@H]32)nc1,-9.2
22,O=C(CCn1nnc2ccccc2c1=O)N(CC1CCOC1)C1CC1 (configuration not stated),1.53
23,COCCN1CCO[C@@H]2CN(C(=O)Cc3ccccc3)CC[C@@H]2C1,-0.0515

row,Compound,cytotoxicity at 70.5 h [%]
1,CCN1CC(C(=O)N2CC(Oc3ccccc3Cl)C2)CCC1=O (configuration not stated),-1.72
2,Cc1ccccc1CN1CCC[C@H]1c1nc(-c2cncnc2N)no1,-3.84
3,Cc1occc1C(=O)N1CCC(C(O)c2ccc(F)cc2)CC1 (configuration not stated),-4.29
4,CCc1nc(CNC2CCCCNC2=O)cs1 (configuration not stated),-6.64
5,Cc1cc(C)n2c(CCCNS(=O)(=O)c3cccs3)nnc2n1,-10.2
6,O=C1CC(c2ccc(C(=O)O)cc2)c2cnn(Cc3ccco3)c2N1 (configuration not stated),-25.8
7,CCCc1nc(C)cc(N2CCNC(C(=O)NCc3cccnc3)C2)n1 (configuration not stated),31
8,CCC(=O)N1CCCCC1c1nc(O)c2c(n1)CN(S(C)(=O)=O)CC2 (configuration not stated),12.1
9,Cc1ccccc1OCC(O)CN1CCC(c2ccn[nH]2)CC1 (configuration not stated),-4.42
10,Cc1ncoc1C(=O)N1CCCC(c2ccc3c(N)nn(C)c3n2)C1 (configuration not stated),-4.28
11,COc1cc(F)c(C(=O)NCc2cc(C)on2)c(F)c1,-6.54
12,Cc1cc(CC2COc3ccccc3C2)cnc1N (configuration not stated),-13.2
13,CC(C)C(=O)N1CCCC(Cc2ccccn2)C1 (configuration not stated),-1.35
14,CN1CCN(c2cc(CNC(=O)c3ccc(Cl)o3)ccn2)CC1,-3.02
15,Cc1nc2cc(=O)[nH]n2c(C)c1CNC(=O)C(C)(C)c1ccccc1,-1.88
16,Cc1csc(CNc2ccc(-c3nc(C4CC4)no3)cn2)n1,-5.44
17,Cc1cccc(CN(C(=O)CCn2cncn2)C(C)C)c1,-9.18
18,CC(C)c1ncncc1C(=O)NCCN1CCCS1(=O)=O,-12.7
19,CC(=O)c1c(C)nn(S(=O)(=O)c2ccc(C)cc2)c1C,0.514
20,CCN1CCCC1CNC(=O)Cc1c(-c2ccc(Cl)cc2)n[nH]c1C (configuration not stated),21.2
21,Cc1cnn(CC2CCCN2Cc2nnc(-c3ccccc3)o2)c1 (configuration not stated),-4.64
22,O=C(C1CCC1)N1CCN(C(=O)c2cnccn2)[C@H]2CS(=O)(=O)C[C@H]21,-11.7
23,COC1CCCN(c2nc(C)nc3c2CCN(Cc2ccco2)CC3)C1 (configuration not stated),8.06

row,Compound,cytotoxicity at 70.5 h [%]
1,O=C(Nc1cnccn1)[C@@H]1COC[C@H]2CN(c3ncc(F)cn3)C[C@H]21,-4.35
2,CC(C)c1nc(C2CCCN2C(=O)c2ccc(N(C)C)nn2)no1 (configuration not stated),7.67
3,CN(C)C(=O)[C@H]1C[C@@H]2CN(S(=O)(=O)c3ccccc3)C[C@H]1O2,-6.1
4,CC(C)Oc1ccc(C(=O)N2CCCC2c2cnn(C)c2)cn1 (configuration not stated),-3
5,CCOc1cc(C)nc(N2CCN(C(=O)c3ccnn3C)CC2)n1,-3.99
6,O=C(NCCC1Cc2ccccc2C1)N1CCCC(O)C1 (configuration not stated),26.4
7,COc1cc(NCC(=O)NC(C)(C#N)C(C)C)cc(OC)c1OC (configuration not stated),-0.783
8,COc1ccc(-c2nc(CN(C)Cc3nncn3C)c(C)o2)c(C)c1C,5.19
9,Cn1nc(CNC(=O)c2nc3ccccc3s2)c2c1CCOC2,8.85
10,NC(=O)c1ccc(N2CCCCC2)c(NC(=O)c2cncc(Br)c2)c1,-7.05
11,CN(Cc1noc(C(C)(C)C)n1)Cc1ccccc1N1CCCCC1,-6.13
12,CC(C)N(C)Cc1cnc2n1CCN(Cc1cccc(C#N)c1)C2,-13.7
13,CS(=O)(=O)NC1CCN(C(=O)NCCc2ccccn2)CC1,13.9
14,O=C1CCN(C(=O)NCc2ccccc2Oc2ccccc2)CCN1,2.87
15,O=C(NC1CCCC1)N1CC[C@H]2[C@H]1CCN2c1nncs1,36.5
16,Cc1ccc(CN2CCc3c(nnn3C)C2COCc2ccccc2)s1 (configuration not stated),-7.66
17,COC(=O)c1ccccc1C(=O)N(CCN(C)C)Cc1sccc1C,-7.74
18,CC(NCc1ccc(-c2ccc(F)cc2)o1)c1nnc2n1CCC2 (configuration not stated),-9.83
19,Cc1cc(C)n(CC2CCCN2C(=O)c2ccc3nnc(C)n3c2)n1 (configuration not stated),-0.407
20,CC(NC(N)=O)C(=O)N(C)CCCc1cc(-c2ccccc2)no1 (configuration not stated),-21.7
